Results from patent publication US4254256A, “Amino sugar compound” (Toyo Jozo company, Ltd., priority 1977, dated 1981).

Tests used:
[1] = test system: amylase; assay: Amylase test in vitro (amylase inhibitor unit); format: biochemical; details: 1 AIU = amount of inhibitor for about 50% inhibition; starch substrate, pH 6.9, 35° C.
Experimental: The amylase activity of the novel amino sugar compound of the present invention was measured by the following method.
Amylase inhibitor unit (1 AIU) is defined as the amount of inhibitor required to control the amylase unit by about 50%. The amylase unit (AU) is the value of enzyme to divide 1μ equivalent of glucoside bond in starch for 1 minute under the following test conditions. The μ equivalent of this divided bond is determined as reduced μ equivalent of sugar formed by Kurie's method which uses dinitrosalicylic acid. Standard curve using maltose is given as μ equivalent of maltose equivalent. A testing solution (0-20 μl) in 0.4 ml of a solution (pH 6.9) containing 0.001 mol of CaCl2, 0-10 μg of the inhibitor and 0.02 mol of sodium glycerophosphate is added to 0.1 ml of an amylase solution (20 to 22 AU/ml). This mixture is equilibrated in a water bath of 35° C. for about 10-20 minutes. Then, this is cultured at 35° C. for 5 minutes together with 0.5 ml of a 1% starch solution (soluble starch No. 1,252 from Marck, Darmstadt) preheated to 35° C. and thereafter 1 ml of dinitrosalicylic acid reagent (P. Bernfeld, Colowick-Kaplan, Meth. Enzymol., 1, 149) is added thereto. For developing color, the batch is heated in a boiling water bath for 5 minutes and then cooled and 10 ml of distilled water is added thereto. Absorbance of 540 nm is measured in comparison with blanks prepared in the same manner without using amylase. For evaluation, amylase activity which is still effective after addition of inhibitor is read from previously recorded amylase standard curve and inhibiting rate (%) of the amylase used is calculated from said amylase activity. The inhibiting rate is plotted as function of the quotient: [formula] Inhibiting point of 50% is read from this curve and is converted to AIU/mg of the inhibitor.

[2] = Solubility in solvents; format: physicochemical
[3] = acetone, ethyl acetate, chloroform
[4] = water, methanol, dimethylformamide, dimethylsulfoxide, hot ethanol

Amylase inhibitor unit [1] | Solubility in solvents [2, 3] | Solubility in solvents [2, 4] | SMILES
3.4×10^2 AIU/mg | insoluble | soluble | OCC1=CC(NC2C(CO)OC(O[C@H]3[C@H](O)[C@@H](O)C(O)O[C@@H]3CO)C(O)C2O)C(O)C(O)C1O (some centres unmarked) [[I] (wherein n=1 and m=0)]
3.6×10^2 AIU/mg | insoluble | soluble | OCC1=CC(NC2C(CO)OC(O[C@H]3[C@H](O)[C@@H](O)C(O[C@H]4[C@H](O)[C@@H](O)C(O)O[C@@H]4CO)O[C@@H]3CO)C(O)C2O)C(O)C(O)C1O (some centres unmarked) [[I] (wherein n=2 and m=0)]
1.2×10^3 AIU/mg | – | – | OCC1=CC(NC2C(CO)OC(O[C@H]3[C@H](O)[C@@H](O)C(O[C@H]4[C@H](O)[C@@H](O)C(O)O[C@@H]4CO)O[C@@H]3CO)C(O)C2O)C(O)C(O)C1OC1O[C@H](CO)[C@@H](O)[C@H](O)[C@H]1O (some centres unmarked) [[I] (wherein n=2, m=1)]
1.4×10^3 AIU/mg | – | – | OCC1=CC(NC2C(CO)OC(O[C@H]3[C@H](O)[C@@H](O)C(O[C@H]4[C@H](O)[C@@H](O)C(O[C@H]5[C@H](O)[C@@H](O)C(O)O[C@@H]5CO)O[C@@H]4CO)O[C@@H]3CO)C(O)C2O)C(O)C(O)C1O (some centres unmarked) [[I] (wherein n=3, m=0)]
